From PMC3953223 (Biochemistry, 2013)
Values after ≈ are worked out from the molar mass of the structure shown.

Legend:
[1] = system: T. gondii tachyzoites (RH-YFP); assay type: cell-based, Toxoplasma gondii; conditions: 72 h
[2] = system: T. gondii parasites; conditions: read-out: IC50, growth of T. gondii parasites; cited from earlier work
[3] = system: PfENR; conditions: cited from earlier work
[4] = target: T1, TgENR (Toxoplasma gondii, UniProt Q6UCJ9); experiment: Thermal shift assay, ligand binding to TgENR alone; conditions: read-out: Kd of NAD^+ binding to TgENR; TSA, binary complex
T1 sequence (Q6UCJ9 103-417 limits assumed): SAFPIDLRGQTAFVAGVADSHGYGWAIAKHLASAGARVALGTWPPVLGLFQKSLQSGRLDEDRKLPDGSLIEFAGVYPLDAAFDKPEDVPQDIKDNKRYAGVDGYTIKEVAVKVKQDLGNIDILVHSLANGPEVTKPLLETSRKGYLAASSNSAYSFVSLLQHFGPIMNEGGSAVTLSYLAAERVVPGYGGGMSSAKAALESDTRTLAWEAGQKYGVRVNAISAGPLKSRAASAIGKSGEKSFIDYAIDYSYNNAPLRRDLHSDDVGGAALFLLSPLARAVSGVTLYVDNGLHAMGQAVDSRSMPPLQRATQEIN

For `Oc1cc(Cl)ccc1Oc1ccc(Cl)cc1Cl` [Triclosan, triclosan], the “T. gondii MIC50” value ([1]; RH-YFP tachyzoites in HFF, ± SEM) is given as 2.8 ± 0.2 µM, the MIC50 ([1]; Toxoplasma gondii, read-out: T. gondii MIC50) is given as 2.8 µM (≈ 0.811 µg/mL) and the IC50 [2] is given as ~0.2 µM. For the same compound, the “forward rate constant of tight binding complex formation” value ([3]; PfENR) was 0.055 s⁻¹.
`NC(=O)c1ccc[n+]([C@@H]2O[C@H](COP(=O)([O-])OP(=O)(O)OC[C@H]3O[C@@H](n4cnc5c(N)ncnc54)[C@H](O)[C@@H]3O)[C@@H](O)[C@H]2O)c1` [NAD^+] gave a Kd [4] of 6000 µM.
For `NC(=O)C1=CN([C@@H]2O[C@H](COP(=O)(O)OP(=O)(O)OC[C@H]3O[C@@H](n4cnc5c(N)ncnc54)[C@H](O)[C@@H]3O)[C@@H](O)[C@H]2O)C=CC1` [NADH, nicotinamide adenine dinucleotide], the Kd ([3]; read-out: Kd for NADH, PfENR) is given as 51.6 µM.
